Measured values: patent US20260234188A1, “CHEMOKINE-BINDING PEPTIDES” (Oxford University Innovation Limited, priority 2022, published 2026)
“Also recorded” adds a separate entry of the source. Ends that are not written are not given here.

Columns and labels:
CCL8 = molecular target: T1, CCL8 (Homo sapiens, UniProt P80075); test: cell-based
T1 construct: purchased Peprotech
T1 sequence (P80075 24-99): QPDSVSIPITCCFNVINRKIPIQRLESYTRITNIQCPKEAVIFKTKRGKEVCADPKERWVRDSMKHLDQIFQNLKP
Experimental: FIG. 2. […] BK1.2 is described in (Darlot, 2020). […] Chemokines used are indicated by the name, followed in parenthesis by the supplier code (P in supplier code indicates Peprotech). […] All experiments were performed at EC80 doses of indicated chemokine. Data are shown as box-whisker plots of three technical and three biological replicates. Statistically significant differences (compared to control, indicated by #), using Dunnett's test with correction for multiple comparisons, are indicated by asterisks: ****=P≤0.0001, ***=P≤0.001, **=P≤0.01, *=P≤0.05.
FIG. 3. […] Chemokines used are indicated by the name, followed in parenthesis by the supplier code (P in supplier code indicates Peprotech). […] All experiments were performed at EC80 doses of indicated chemokine.
Briefly, cell migration assays use THP1 cells (human monocyte) and primary human buffy coat white cells (consisting of neutrophil granulocytes, monocytes, and lymphocytes), and activated T-cells. THP1 cells and primary monocytes respond to CCL2, CCL3, CCL5, CCL8 and CXCL4, granulocytes to CXCL1 and CXCL8, activated T-cells to CXCL9/10/11. Assays are performed in 96-well Boyden chambers, and migrated cells counted and characterized using and ATTUNE Flow Cytometer as described. Triplicate assays are performed at the EC80 dose of each chemokine at 10 μM peptide concentration.
The J:CXCR1 cell line was generated by transfecting Jurkat cells by electroporation with PvuI-linearized plasmid D1398 and selecting with blasticidin (Sigma-Aldrich, Cat #203350, […]). […] J:CXCR1 cells were cultured in RPMI-1640 media (Gibco), supplemented with 10% FBS and 5 mM L-Glutamine with blasticidin. For J:CXCR1 migration assays, 300,000 cells/well were added to the top chamber of a 3 μm Transwell insert (Corning) in 50 μL of migration media (RPMI-1640, 0.5% FBS, 4 mM L-Glutamine, 0.05% DMSO). The bottom chamber contained 150 μL of chemokine, with or without peptide. Cells were migrated at 37° C. in 5% CO2 for 4 hours. […]

CXCL6 = molecular target: T2, CXCL6 (Homo sapiens, UniProt P80162); test: cell-based; conditions: value in parentheses restating the molar figure
T2 sequence (P80162 38-114): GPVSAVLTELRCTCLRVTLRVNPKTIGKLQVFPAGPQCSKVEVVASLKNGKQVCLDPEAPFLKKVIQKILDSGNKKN
Experimental: FIG. 11. […] Technical replicates are shown as individual data points. […] The response curve (solid blue line) and its 95% confidence interval (grey ribbon) were calculated using a 4-parameter log-logistic plot.
The J:CXCR1 cell line was generated by transfecting Jurkat cells by electroporation with PvuI-linearized plasmid D1398 and selecting with blasticidin (Sigma-Aldrich, Cat #203350, […]). […] J:CXCR1 cells were cultured in RPMI-1640 media (Gibco), supplemented with 10% FBS and 5 mM L-Glutamine with blasticidin. For J:CXCR1 migration assays, 300,000 cells/well were added to the top chamber of a 3 μm Transwell insert (Corning) in 50 μL of migration media (RPMI-1640, 0.5% FBS, 4 mM L-Glutamine, 0.05% DMSO). The bottom chamber contained 150 μL of chemokine, with or without peptide. Cells were migrated at 37° C. in 5% CO2 for 4 hours. The plate was incubated on a shaking platform for 10 minutes, 800 rpm, at 37° C., and 150 μL from the bottom of the plate transferred into a U-bottom plate containing 50 μL of migration media. Cell counts were determined by Attune NxT Flow Cytometer Plate Reader (ThermoFisher), based on cell size parameters FSC-H/SSC-H. Experiments were performed in 3 technical and 3 biological replicates. THP-1 migration assays were carried out using methods known in the art. Activated T-cell assays were carried out using methods known in the art, with the following modifications in the isolation process. Peripheral blood cells were obtained from leucocyte cones (NHS Blood Transfusion Services), following which, T-cells were isolated using two rounds of human CD8+ T-cell isolation kit (480011, BioLegend). At day 10 after activation, T-cells were frozen at 20 E6 cells/ml in TexMACS medium supplemented with 10% DMSO (D2650, Sigma) in liquid nitrogen. Prior to use, activated T-cells were recovered for 24 hours in TexMACs medium at 0.3 E6 cells/ml and incubated at 37° C. in 5% CO2. Chemokine sources are described in Supplementary information Table 3. Statistical significances between control experimental groups was evaluated using Dunnett's test. IC50 experiments were performed at the EC80 dose of chemokine. EC80 was calculated by fitting a chemokine dose-response curve with 3 parameters (fixing the top to 100%). IC50 was calculated by fitting an inhibitor response curve with 4 parameters.
Migration assays using THP1, activated T-cell (ATC) and J:CXCR1 (Jurkat cells stably transfected with CXCR1 receptor) were performed as described previously. IC50 experiments were performed at the EC80 dose of chemokine. EC80 was calculated by fitting a chemokine dose-response curve with 3 parameters (fixing the top to 100%). IC50 was calculated by fitting an inhibitor response curve with 4 parameters. R-packages used were ggupset_0.3.0, DescTools_0.99.44, and drc_3.0-1.

[1] = system: panel of up to 42 human chemokines; test: Phage-display next generation sequencing screen of overlapping hexadecapeptide libraries, chemokines displayed on streptavidin beads; type: binding; conditions: log2E greater than 5, chemokines named by first part of UniProt Entry Name, peptides binding complement C5a (control) excluded;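 note: chemokine listed when log2 fold enrichment exceeds 5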
Procedure, shortened: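 Phage-display libraries of 55662 overlapping hexadecapeptides from tick and viral chemokine-binding proteins, human chemokines and chemokine receptors screened against up to 42 human chemokines, with hits found by next-generation sequencing. Peptides mapped to parent-protein position with log2 fold enrichment; regions of interest where cumulative residue log2 E exceeds the 95% upper CI of the protein median.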

Substance | IC50 (CCL8; value in parentheses restating the molar figure) [µM] | IC50 (CXCL6) [µM] | inhibition of cell migration (CCL8; peptide 10 μM, chemokine at EC80, versus scrambled control HD2SCR) | Chemokines Bound [1]
EEDDYTAYAPLTCYFT-NH2 [HD2, EEDDYTAYAPLTCYFT] | 0.015 | 140 |  | 
EDEDYEDFFKPVTCYF [HD845] |  |  | inhibition | CCL18, CCL22,; also recorded: CCL5, CCL8
